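48-hour exposure; five concentrations; linearly interpolated endpoints. At the GI50, growth is halved.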 Calls of active or inactive are those of the source. Cut-off read from the data, not from the text of the source: active = GI50 up to about 1.1 µM and inactive = higher.
Experiments:
Assay in all cases: NCI-60 cell line screen, 48 h
[1] = test system: MDA-MB-231
[2] = test system: SNB-19
[3] = test system: NCI/ADR-RES
[4] = test system: CCRF-CEM
[5] = test system: SF-539
[6] = test system: T47D
[7] = test system: UACC-62
[8] = test system: UO-31
[9] = test system: SF-295
[10] = test system: RPMI-8226
[11] = test system: SK-MEL-2
[12] = test system: DU-145
[13] = test system: MDA-MB-435
[14] = test system: CAKI-1
[15] = test system: MCF7
[16] = test system: U-251
[17] = test system: A498
[18] = test system: HL-60
[19] = test system: NCI-H460

Structure (SMILES)	GI50 [1]	GI50 [2]	GI50 [3]	GI50 [4]	GI50 [5]	GI50 [6]	GI50 [7]	GI50 [8]	GI50 [9]	GI50 [10]	GI50 [11]	GI50 [12]	GI50 [13]	GI50 [14]	GI50 [15]	GI50 [16]	GI50 [17]	GI50 [18]	GI50 [19]
COC(=O)[C@H](Cc1ccccc1)NC(=O)N(CCC#N)CCN(C(=O)N[C@@H](Cc1ccccc1)C(=O)OC)c1ccccc1	26.7 µM (inactive)	49.5 µM (inactive)	> 100 µM (inactive)	27.2 µM (inactive)	20.8 µM (inactive)	20.2 µM (inactive)	3.34 µM (inactive)	17.6 µM (inactive)	33.8 µM (inactive)	21 µM (inactive)	18.5 µM (inactive)	29.1 µM (inactive)	18.9 µM (inactive)	20 µM (inactive)	38.5 µM (inactive)	> 10 µM (inactive)	23 µM (inactive)	–	–
Nc1nc2c(ncn2CC2CCC(CO)C2)c(=O)[nH]1 (configuration not stated)	> 100 µM (inactive)	> 100 µM (inactive)	> 100 µM (inactive)	> 100 µM (inactive)	> 100 µM (inactive)	> 100 µM (inactive)	29.2 µM (inactive)	> 100 µM (inactive)	> 100 µM (inactive)	> 100 µM (inactive)	> 100 µM (inactive)	> 100 µM (inactive)	> 100 µM (inactive)	> 100 µM (inactive)	> 100 µM (inactive)	> 100 µM (inactive)	> 100 µM (inactive)	–	–
CNC(=O)N(CCC#N)CCCN(C(=O)NC)c1ccccc1	> 100 µM (inactive)	> 100 µM (inactive)	> 100 µM (inactive)	> 100 µM (inactive)	> 100 µM (inactive)	> 100 µM (inactive)	> 100 µM (inactive)	> 100 µM (inactive)	> 100 µM (inactive)	> 100 µM (inactive)	> 100 µM (inactive)	> 100 µM (inactive)	> 100 µM (inactive)	> 100 µM (inactive)	> 100 µM (inactive)	> 100 µM (inactive)	–	> 100 µM (inactive)	> 100 µM (inactive)
COc1cc(NS(C)(=O)=O)ccc1N1Cc2c[nH]c3ccc4nccc1c4c23	24.9 µM (inactive)	34.7 µM (inactive)	> 100 µM (inactive)	25.5 µM (inactive)	–	25.5 µM (inactive)	67.8 µM (inactive)	> 100 µM (inactive)	41.5 µM (inactive)	17.5 µM (inactive)	21.6 µM (inactive)	42.5 µM (inactive)	34.4 µM (inactive)	> 100 µM (inactive)	36.6 µM (inactive)	36.5 µM (inactive)	38.5 µM (inactive)	23.6 µM (inactive)	18.5 µM (inactive)
CCOP(=O)(C[S+](C)[O-])O[C@@H]1C[C@H](C)CC[C@H]1C(C)C (some centres not stated)	3.03 µM (inactive)	12.2 µM (inactive)	7.29 µM (inactive)	2.43 µM (inactive)	12.2 µM (inactive)	4.6 µM (inactive)	2.17 µM (inactive)	1.17 µM (inactive)	5.6 µM (inactive)	1.85 µM (inactive)	4.47 µM (inactive)	6.37 µM (inactive)	3.21 µM (inactive)	2.88 µM (inactive)	3.08 µM (inactive)	4.59 µM (inactive)	–	3.48 µM (inactive)	4.5 µM (inactive)
NC(=S)Nc1ccc2c(c1)oc1ccccc12	> 100 µM (inactive)	> 100 µM (inactive)	> 100 µM (inactive)	9.91 µM (inactive)	–	> 31.5 µM (inactive)	> 100 µM (inactive)	> 28.4 µM (inactive)	> 100 µM (inactive)	11.7 µM (inactive)	> 100 µM (inactive)	> 100 µM (inactive)	> 100 µM (inactive)	> 100 µM (inactive)	8.73 µM (inactive)	> 100 µM (inactive)	> 100 µM (inactive)	7.82 µM (inactive)	> 100 µM (inactive)
COC(=O)c1cc2c(cc1O)[C@@H](NC(C)=O)CCc1cc(OC)c(OC)c(OC)c1-2	0.0923 µM (active)	0.101 µM (active)	0.114 µM (active)	0.0492 µM (active)	0.0294 µM (active)	> 10 µM (inactive)	0.0692 µM (active)	0.445 µM (active)	0.0385 µM (active)	0.0668 µM (active)	0.084 µM (active)	0.064 µM (active)	0.0262 µM (active)	0.0993 µM (active)	< 0.01 µM (active)	0.0342 µM (active)	0.0568 µM (active)	–	0.0528 µM (active)
O=C(NC(=S)Nc1ccc2c(c1)Sc1ccccc1O2)c1ccccc1	21.6 µM (inactive)	34 µM (inactive)	39.9 µM (inactive)	23 µM (inactive)	22.6 µM (inactive)	41.3 µM (inactive)	22.5 µM (inactive)	> 100 µM (inactive)	24.3 µM (inactive)	51.3 µM (inactive)	14.1 µM (inactive)	36.2 µM (inactive)	3.55 µM (inactive)	47.8 µM (inactive)	34.2 µM (inactive)	20.7 µM (inactive)	–	13.5 µM (inactive)	48 µM (inactive)

Reference: ChEMBL document CHEMBL1201862, “PubChem BioAssay data set” (2004)
